Experimental data reported in PMC12078602 (Nature Communications, 2025).

Key:
[1] = target: T1, Glk (BT2493) (Bacteroides thetaiotaomicron, UniProt Q8A4V4); assay: glucokinase activity in vitro, coupled NADH oxidation, […] nm; type: biochemical; settings: 50 mM Tris pH 7.4, 3 mM MgCl2, 10 mM NH4Cl; data only in supplement
T1 sequence (Q8A4V4 1-326): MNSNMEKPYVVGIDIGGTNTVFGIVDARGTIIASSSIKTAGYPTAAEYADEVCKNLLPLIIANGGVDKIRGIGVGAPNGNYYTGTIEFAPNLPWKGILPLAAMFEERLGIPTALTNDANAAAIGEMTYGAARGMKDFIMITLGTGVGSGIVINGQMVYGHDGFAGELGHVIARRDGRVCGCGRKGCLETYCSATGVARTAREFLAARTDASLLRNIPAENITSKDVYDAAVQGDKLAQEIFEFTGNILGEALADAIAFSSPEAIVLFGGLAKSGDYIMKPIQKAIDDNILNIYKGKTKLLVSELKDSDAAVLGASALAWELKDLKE

[2] = tested on: Cur (Bacteroides thetaiotaomicron VPI-5482); assay: EMSA

| Compound | glucokinase activity in vitro, coupled NADH oxidation, 340 nm [1] | Kd [2] [pmol] |
| --- | --- | --- |
| OC[C@H]1OC(O)[C@H](O)[C@@H](O)[C@@H]1O (some centres unmarked) [glucose] | We determined that Glk exhibits glucokinase activity in vitro (Supplementary Fig. 4a) |  |
| fusA2 promoter probe (wild-type) |  | 4.97 |
